Measured values from ChEMBL document CHEMBL4649991.
Where “and” joins values, the source holds several entries; their conditions need not be identical. Equal values may be shown once.

What was measured:
[1] = biological target: Transcription initiation factor TFIID subunit 1-like (Homo sapiens) (UniProt Q8IZX4); conditions: Compound concentration 10.0 uM, Protein concentration 2.0 uM
[2] = biological target: Transcription initiation factor TFIID subunit 1-like (Homo sapiens) (UniProt Q8IZX4); conditions: Compound concentration 10.0 uM, Protein concentration 2.0 uM; remark: listed apart in the source
[3] = biological target: PH-interacting protein (Homo sapiens) (UniProt Q8WWQ0); conditions: Compound concentration 50.0 uM, Protein concentration 0.025 uM
[4] = biological target: Protein polybromo-1 (Homo sapiens) (UniProt Q86U86); conditions: Compound concentration 10.0 uM, Protein concentration 2.0 uM
[5] = biological target: Bromodomain and WD repeat-containing protein 1 (Homo sapiens) (UniProt Q9NSI6); conditions: Compound concentration 10.0 uM, Protein concentration 2.0 uM
[6] = biological target: Bromodomain adjacent to zinc finger domain protein 1A (Homo sapiens) (UniProt Q9NRL2); conditions: Compound concentration 10.0 uM, Protein concentration 2.0 uM
[7] = biological target: ATPase family AAA domain-containing protein 2 (Homo sapiens) (UniProt Q6PL18); conditions: Compound concentration 10.0 uM, Protein concentration 2.0 uM
[8] = biological target: SWI/SNF-related matrix-associated actin-dependent regulator of chromatin subfamily A member 4 (Homo sapiens) (UniProt P51532); conditions: Compound concentration 10.0 uM, Protein concentration 2.0 uM
[9] = biological target: ATPase family AAA domain-containing protein 2B (Homo sapiens) (UniProt Q9ULI0); conditions: Compound concentration 10.0 uM, Protein concentration 2.0 uM
Peregrin (Homo sapiens) [10] = biological target: T1, Peregrin (Homo sapiens) (UniProt P55201); conditions: Compound concentration 10.0 uM, Protein concentration 2.0 uM
T1 sequence (whole entry): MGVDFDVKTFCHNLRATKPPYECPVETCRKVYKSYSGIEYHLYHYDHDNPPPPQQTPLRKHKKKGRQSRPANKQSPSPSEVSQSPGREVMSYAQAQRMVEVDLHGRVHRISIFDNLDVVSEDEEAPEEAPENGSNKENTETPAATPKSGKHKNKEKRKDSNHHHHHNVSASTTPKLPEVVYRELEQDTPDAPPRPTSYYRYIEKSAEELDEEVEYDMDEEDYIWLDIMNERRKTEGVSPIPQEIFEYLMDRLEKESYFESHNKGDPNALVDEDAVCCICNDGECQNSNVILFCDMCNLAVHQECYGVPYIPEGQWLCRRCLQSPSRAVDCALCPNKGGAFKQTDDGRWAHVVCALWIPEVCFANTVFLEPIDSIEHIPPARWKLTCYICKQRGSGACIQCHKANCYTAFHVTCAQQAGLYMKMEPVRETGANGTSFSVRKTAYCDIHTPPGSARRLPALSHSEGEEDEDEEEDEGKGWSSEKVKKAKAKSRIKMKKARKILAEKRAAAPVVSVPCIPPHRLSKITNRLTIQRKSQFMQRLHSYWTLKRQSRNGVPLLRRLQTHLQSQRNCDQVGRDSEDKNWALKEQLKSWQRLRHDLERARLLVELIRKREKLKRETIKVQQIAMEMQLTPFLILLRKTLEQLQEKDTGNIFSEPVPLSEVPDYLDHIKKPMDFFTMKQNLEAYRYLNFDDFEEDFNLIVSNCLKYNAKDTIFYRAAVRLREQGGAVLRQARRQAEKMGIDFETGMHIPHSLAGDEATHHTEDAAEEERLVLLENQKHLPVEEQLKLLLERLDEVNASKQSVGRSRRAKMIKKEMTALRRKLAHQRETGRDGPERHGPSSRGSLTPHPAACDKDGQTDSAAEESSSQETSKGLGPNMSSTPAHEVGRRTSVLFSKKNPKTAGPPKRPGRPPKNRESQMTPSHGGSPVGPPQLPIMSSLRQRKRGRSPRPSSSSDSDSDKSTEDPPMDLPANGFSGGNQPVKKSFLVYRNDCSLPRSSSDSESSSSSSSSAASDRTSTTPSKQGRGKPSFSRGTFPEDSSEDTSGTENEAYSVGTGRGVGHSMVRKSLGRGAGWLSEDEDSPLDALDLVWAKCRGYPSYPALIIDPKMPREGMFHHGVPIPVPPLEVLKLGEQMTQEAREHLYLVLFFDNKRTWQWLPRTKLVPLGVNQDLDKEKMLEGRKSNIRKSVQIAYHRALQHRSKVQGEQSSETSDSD

[11] = biological target: Protein polybromo-1 (Homo sapiens) (UniProt Q86U86); conditions: Compound concentration 10.0 uM, Protein concentration 2.0 uM; remark: listed apart in the source
[12] = biological target: Bromodomain-containing protein 9 (Homo sapiens) (UniProt Q9H8M2); experiment: Alphascreen assay. Domain start/stop: L14-Q143; conditions: Compound concentration 4.0 uM, Protein concentration 5.0 uM
[13] = biological target: Chromatin remodeling regulator CECR2 (Homo sapiens) (UniProt Q9BXF3); conditions: Compound concentration 4.0 uM, Protein concentration 19.0 uM
[14] = biological target: Protein polybromo-1 (Homo sapiens) (UniProt Q86U86); conditions: Compound concentration 10.0 uM, Protein concentration 2.0 uM; remark: listed apart in the source
[15] = biological target: Histone-lysine N-methyltransferase 2A (Homo sapiens) (UniProt Q03164); conditions: Compound concentration 10.0 uM, Protein concentration 2.0 uM
Peregrin (Homo sapiens) [16] = biological target: T1, Peregrin (Homo sapiens); experiment: Alphascreen assay. Domain start/stop: M626-G740; conditions: Protein concentration 50.0 uM
[17] = biological target: Bromodomain testis-specific protein (Homo sapiens) (UniProt Q58F21); conditions: Compound concentration 10.0 uM, Protein concentration 2.0 uM
[18] = biological target: Chromatin remodeling regulator CECR2 (Homo sapiens) (UniProt Q9BXF3); conditions: Compound concentration 10.0 uM, Protein concentration 2.0 uM
[19] = biological target: Bromodomain-containing protein 7 (Homo sapiens) (UniProt Q9NPI1); conditions: Compound concentration 10.0 uM, Protein concentration 2.0 uM
[20] = biological target: Transcription intermediary factor 1-beta (Homo sapiens) (UniProt Q13263); conditions: Compound concentration 10.0 uM, Protein concentration 2.0 uM
[21] = biological target: Transcription initiation factor TFIID subunit 1 (Homo sapiens) (UniProt P21675); conditions: Compound concentration 10.0 uM, Protein concentration 2.0 uM
[22] = biological target: Bromodomain-containing protein 2 (Homo sapiens) (UniProt P25440); conditions: Compound concentration 10.0 uM, Protein concentration 2.0 uM
[23] = biological target: Bromodomain adjacent to zinc finger domain protein 2B (Homo sapiens) (UniProt Q9UIF8); conditions: Compound concentration 10.0 uM, Protein concentration 2.0 uM
[24] = biological target: CREB-binding protein (Homo sapiens) (UniProt Q92793); conditions: Compound concentration 10.0 uM, Protein concentration 2.0 uM
[25] = biological target: Bromodomain-containing protein 1 (Homo sapiens) (UniProt O95696); conditions: Compound concentration 10.0 uM, Protein concentration 2.0 uM
[26] = biological target: Bromodomain-containing protein 2 (Homo sapiens) (UniProt P25440); conditions: Compound concentration 10.0 uM, Protein concentration 2.0 uM; remark: listed apart in the source
[27] = biological target: Bromodomain-containing protein 4 (Homo sapiens) (UniProt O60885); experiment: Alphascreen assay. Domain start/stop: N44-E168; conditions: Compound concentration 25.0 uM, Protein concentration 6.25 uM
Peregrin (Homo sapiens) [28] = biological target: T1, Peregrin (Homo sapiens); conditions: Compound concentration 10.0 uM, Protein concentration 2.0 uM; remark: listed apart in the source
[29] = biological target: Histone acetyltransferase KAT2B (Homo sapiens) (UniProt Q92831); conditions: Compound concentration 10.0 uM, Protein concentration 2.0 uM
[30] = biological target: Bromodomain and WD repeat-containing protein 3 (Homo sapiens) (UniProt Q6RI45); conditions: Compound concentration 10.0 uM, Protein concentration 2.0 uM
[31] = biological target: Histone acetyltransferase p300 (Homo sapiens) (UniProt Q09472); conditions: Compound concentration 10.0 uM, Protein concentration 2.0 uM
[32] = biological target: Protein polybromo-1 (Homo sapiens) (UniProt Q86U86); conditions: Compound concentration 10.0 uM, Protein concentration 2.0 uM; remark: listed apart in the source
[33] = biological target: Transcription intermediary factor 1-alpha (Homo sapiens) (UniProt O15164); conditions: Compound concentration 10.0 uM, Protein concentration 2.0 uM
[34] = biological target: Nuclear body protein SP140-like protein (Homo sapiens) (UniProt Q9H930); conditions: Compound concentration 10.0 uM, Protein concentration 2.0 uM
[35] = biological target: Tyrosine-protein kinase BAZ1B (Homo sapiens) (UniProt Q9UIG0); conditions: Compound concentration 10.0 uM, Protein concentration 2.0 uM
[36] = biological target: SWI/SNF-related matrix-associated actin-dependent regulator of chromatin subfamily A member 2 (Homo sapiens) (UniProt P51531); conditions: Compound concentration 10.0 uM, Protein concentration 2.0 uM
[37] = biological target: Protein polybromo-1 (Homo sapiens) (UniProt Q86U86); conditions: Compound concentration 10.0 uM, Protein concentration 2.0 uM; remark: listed apart in the source
[38] = biological target: Histone acetyltransferase KAT2A (Homo sapiens) (UniProt Q92830); conditions: Compound concentration 10.0 uM, Protein concentration 2.0 uM
[39] = biological target: Protein polybromo-1 (Homo sapiens) (UniProt Q86U86); conditions: Compound concentration 10.0 uM, Protein concentration 2.0 uM; remark: listed apart in the source
[40] = biological target: Nuclear body protein SP140 (Homo sapiens) (UniProt Q13342); conditions: Compound concentration 10.0 uM, Protein concentration 2.0 uM
[41] = biological target: Bromodomain and PHD finger-containing protein 3 (Homo sapiens) (UniProt Q9ULD4); conditions: Compound concentration 10.0 uM, Protein concentration 2.0 uM
[42] = biological target: E3 ubiquitin-protein ligase TRIM33 (Homo sapiens) (UniProt Q9UPN9); experiment: Thermal Shift Assay. Domain start/stop: D882-P1073; conditions: Compound concentration 10.0 uM, Protein concentration 2.0 uM
[43] = biological target: Bromodomain-containing protein 9 (Homo sapiens) (UniProt Q9H8M2); conditions: Compound concentration 10.0 uM, Protein concentration 2.0 uM
[44] = biological target: PH-interacting protein (Homo sapiens) (UniProt Q8WWQ0); conditions: Compound concentration 10.0 uM, Protein concentration 2.0 uM
[45] = biological target: Bromodomain adjacent to zinc finger domain protein 2A (Homo sapiens) (UniProt Q9UIF9); conditions: Compound concentration 10.0 uM, Protein concentration 2.0 uM
[46] = biological target: Nucleosome-remodeling factor subunit BPTF (Homo sapiens) (UniProt Q12830)
Description: Alphascreen assay. Domain start/stop: S2791-H2911

[47] = biological target: Nucleosome-remodeling factor subunit BPTF (Homo sapiens) (UniProt Q12830); conditions: Compound concentration 10.0 uM, Protein concentration 2.0 uM
[48] = biological target: Bromodomain-containing protein 4 (Homo sapiens) (UniProt O60885); conditions: Compound concentration 10.0 uM, Protein concentration 2.0 uM
[49] = biological target: Chromatin remodeling regulator CECR2 (Homo sapiens) (UniProt Q9BXF3); conditions: Compound concentration 10.0 uM, Protein concentration 2.0 uM; remark: listed apart in the source
[50] = biological target: Bromodomain-containing protein 3 (Homo sapiens) (UniProt Q15059); conditions: Compound concentration 10.0 uM, Protein concentration 2.0 uM
[51] = biological target: Bromodomain testis-specific protein (Homo sapiens) (UniProt Q58F21); conditions: Compound concentration 10.0 uM, Protein concentration 2.0 uM; remark: listed apart in the source
[52] = biological target: Bromodomain-containing protein 3 (Homo sapiens) (UniProt Q15059); conditions: Compound concentration 10.0 uM, Protein concentration 2.0 uM; remark: listed apart in the source
[53] = biological target: Transcription initiation factor TFIID subunit 1 (Homo sapiens) (UniProt P21675); conditions: Compound concentration 10.0 uM, Protein concentration 2.0 uM; remark: listed apart in the source
[54] = biological target: Histone-lysine N-methyltransferase ASH1L (Homo sapiens) (UniProt Q9NR48); conditions: Compound concentration 10.0 uM, Protein concentration 2.0 uM

Protein polybromo-1 (Homo sapiens), sequence (Q86U86 whole entry): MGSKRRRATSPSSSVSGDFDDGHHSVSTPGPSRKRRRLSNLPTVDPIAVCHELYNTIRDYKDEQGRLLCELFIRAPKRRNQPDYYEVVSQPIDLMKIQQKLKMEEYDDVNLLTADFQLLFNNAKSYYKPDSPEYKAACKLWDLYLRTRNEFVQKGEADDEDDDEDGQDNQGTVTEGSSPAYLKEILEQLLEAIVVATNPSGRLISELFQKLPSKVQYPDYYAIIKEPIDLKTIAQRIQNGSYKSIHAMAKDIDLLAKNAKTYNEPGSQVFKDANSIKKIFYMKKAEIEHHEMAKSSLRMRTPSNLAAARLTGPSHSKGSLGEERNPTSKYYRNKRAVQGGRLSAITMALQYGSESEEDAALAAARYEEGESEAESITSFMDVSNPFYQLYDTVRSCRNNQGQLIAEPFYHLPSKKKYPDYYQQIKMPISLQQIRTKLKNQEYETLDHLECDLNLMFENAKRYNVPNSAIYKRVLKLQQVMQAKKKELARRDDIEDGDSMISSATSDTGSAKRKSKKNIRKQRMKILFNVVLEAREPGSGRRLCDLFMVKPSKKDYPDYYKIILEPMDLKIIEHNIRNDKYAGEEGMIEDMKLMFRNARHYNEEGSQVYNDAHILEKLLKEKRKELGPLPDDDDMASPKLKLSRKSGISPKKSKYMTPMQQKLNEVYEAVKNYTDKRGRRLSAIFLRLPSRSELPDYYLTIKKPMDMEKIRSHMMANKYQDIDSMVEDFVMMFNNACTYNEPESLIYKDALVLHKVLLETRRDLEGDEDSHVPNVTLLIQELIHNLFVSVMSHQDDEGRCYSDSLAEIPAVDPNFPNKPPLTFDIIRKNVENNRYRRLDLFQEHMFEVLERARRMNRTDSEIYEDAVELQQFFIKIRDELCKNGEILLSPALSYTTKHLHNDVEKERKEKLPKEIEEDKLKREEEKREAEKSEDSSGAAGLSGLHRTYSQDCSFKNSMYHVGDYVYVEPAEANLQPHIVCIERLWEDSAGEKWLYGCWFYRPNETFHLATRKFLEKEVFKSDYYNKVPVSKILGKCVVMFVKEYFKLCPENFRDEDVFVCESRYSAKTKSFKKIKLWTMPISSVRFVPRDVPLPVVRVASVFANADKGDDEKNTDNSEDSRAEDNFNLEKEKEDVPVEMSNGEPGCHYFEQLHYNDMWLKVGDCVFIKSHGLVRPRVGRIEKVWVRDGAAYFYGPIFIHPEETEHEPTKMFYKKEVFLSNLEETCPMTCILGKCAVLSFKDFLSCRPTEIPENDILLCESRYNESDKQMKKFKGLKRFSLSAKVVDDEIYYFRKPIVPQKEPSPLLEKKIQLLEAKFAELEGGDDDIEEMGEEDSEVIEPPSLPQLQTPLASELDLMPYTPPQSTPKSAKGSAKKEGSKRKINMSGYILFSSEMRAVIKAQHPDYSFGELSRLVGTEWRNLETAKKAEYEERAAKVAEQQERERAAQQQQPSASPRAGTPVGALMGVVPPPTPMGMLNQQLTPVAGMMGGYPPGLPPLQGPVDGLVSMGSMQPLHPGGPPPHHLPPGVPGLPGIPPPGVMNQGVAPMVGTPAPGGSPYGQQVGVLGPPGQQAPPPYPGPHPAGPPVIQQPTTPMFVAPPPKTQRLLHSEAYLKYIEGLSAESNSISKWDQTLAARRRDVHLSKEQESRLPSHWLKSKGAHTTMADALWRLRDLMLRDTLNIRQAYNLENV
Bromodomain-containing protein 9 (Homo sapiens), sequence (Q9H8M2 whole entry): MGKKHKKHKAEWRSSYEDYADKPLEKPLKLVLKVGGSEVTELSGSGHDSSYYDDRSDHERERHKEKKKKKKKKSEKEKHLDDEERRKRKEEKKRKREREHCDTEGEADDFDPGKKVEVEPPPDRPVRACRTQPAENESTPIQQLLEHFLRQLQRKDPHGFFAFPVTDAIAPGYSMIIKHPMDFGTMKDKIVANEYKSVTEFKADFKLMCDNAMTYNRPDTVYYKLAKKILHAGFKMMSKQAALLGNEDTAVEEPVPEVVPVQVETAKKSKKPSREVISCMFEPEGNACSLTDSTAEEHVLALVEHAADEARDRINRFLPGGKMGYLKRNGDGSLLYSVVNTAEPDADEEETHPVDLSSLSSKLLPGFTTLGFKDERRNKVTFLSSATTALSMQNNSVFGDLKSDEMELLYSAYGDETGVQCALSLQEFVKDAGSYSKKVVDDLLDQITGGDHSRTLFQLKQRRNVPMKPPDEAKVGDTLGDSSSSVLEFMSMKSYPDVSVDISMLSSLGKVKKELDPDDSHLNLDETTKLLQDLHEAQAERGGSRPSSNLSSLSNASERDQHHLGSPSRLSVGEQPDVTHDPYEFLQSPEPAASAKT
Chromatin remodeling regulator CECR2 (Homo sapiens), sequence (Q9BXF3 whole entry, looked up): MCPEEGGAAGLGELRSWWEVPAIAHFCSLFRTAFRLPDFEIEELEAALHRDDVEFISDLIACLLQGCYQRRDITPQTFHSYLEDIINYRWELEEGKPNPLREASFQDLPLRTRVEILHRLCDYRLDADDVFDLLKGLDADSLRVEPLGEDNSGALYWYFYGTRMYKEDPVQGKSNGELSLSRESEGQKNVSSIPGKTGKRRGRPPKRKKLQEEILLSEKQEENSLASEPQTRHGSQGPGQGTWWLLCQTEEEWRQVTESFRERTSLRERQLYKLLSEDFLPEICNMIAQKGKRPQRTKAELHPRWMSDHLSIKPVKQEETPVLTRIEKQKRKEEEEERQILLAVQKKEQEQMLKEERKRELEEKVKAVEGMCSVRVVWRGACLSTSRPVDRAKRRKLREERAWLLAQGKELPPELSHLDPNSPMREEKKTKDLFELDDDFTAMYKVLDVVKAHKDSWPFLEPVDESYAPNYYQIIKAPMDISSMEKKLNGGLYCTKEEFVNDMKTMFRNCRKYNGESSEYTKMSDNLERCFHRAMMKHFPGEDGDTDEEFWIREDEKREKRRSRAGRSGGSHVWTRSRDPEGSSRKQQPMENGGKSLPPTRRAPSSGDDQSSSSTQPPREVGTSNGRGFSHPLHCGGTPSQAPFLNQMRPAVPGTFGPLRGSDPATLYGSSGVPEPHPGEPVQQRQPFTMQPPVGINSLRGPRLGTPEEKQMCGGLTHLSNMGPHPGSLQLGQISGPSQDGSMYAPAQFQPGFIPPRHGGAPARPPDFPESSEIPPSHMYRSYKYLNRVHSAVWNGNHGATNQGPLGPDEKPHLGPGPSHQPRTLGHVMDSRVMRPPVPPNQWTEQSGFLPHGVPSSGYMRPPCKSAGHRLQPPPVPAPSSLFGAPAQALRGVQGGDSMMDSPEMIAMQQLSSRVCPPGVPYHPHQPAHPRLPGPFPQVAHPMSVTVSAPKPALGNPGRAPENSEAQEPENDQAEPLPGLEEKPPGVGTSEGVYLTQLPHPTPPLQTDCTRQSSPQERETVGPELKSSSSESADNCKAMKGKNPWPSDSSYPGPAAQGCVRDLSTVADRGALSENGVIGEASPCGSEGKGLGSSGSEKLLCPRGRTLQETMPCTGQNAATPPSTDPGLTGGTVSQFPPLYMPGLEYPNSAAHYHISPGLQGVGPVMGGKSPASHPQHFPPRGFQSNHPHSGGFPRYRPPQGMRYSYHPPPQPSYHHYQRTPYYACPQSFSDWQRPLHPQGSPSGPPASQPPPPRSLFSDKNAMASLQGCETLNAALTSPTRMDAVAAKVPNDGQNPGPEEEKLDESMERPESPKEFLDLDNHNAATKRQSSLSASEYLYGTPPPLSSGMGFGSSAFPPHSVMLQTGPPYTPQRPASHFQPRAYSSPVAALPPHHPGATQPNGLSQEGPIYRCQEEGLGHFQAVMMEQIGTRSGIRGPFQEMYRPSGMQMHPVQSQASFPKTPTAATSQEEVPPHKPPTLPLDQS
Bromodomain-containing protein 7 (Homo sapiens), sequence (Q9NPI1 whole entry): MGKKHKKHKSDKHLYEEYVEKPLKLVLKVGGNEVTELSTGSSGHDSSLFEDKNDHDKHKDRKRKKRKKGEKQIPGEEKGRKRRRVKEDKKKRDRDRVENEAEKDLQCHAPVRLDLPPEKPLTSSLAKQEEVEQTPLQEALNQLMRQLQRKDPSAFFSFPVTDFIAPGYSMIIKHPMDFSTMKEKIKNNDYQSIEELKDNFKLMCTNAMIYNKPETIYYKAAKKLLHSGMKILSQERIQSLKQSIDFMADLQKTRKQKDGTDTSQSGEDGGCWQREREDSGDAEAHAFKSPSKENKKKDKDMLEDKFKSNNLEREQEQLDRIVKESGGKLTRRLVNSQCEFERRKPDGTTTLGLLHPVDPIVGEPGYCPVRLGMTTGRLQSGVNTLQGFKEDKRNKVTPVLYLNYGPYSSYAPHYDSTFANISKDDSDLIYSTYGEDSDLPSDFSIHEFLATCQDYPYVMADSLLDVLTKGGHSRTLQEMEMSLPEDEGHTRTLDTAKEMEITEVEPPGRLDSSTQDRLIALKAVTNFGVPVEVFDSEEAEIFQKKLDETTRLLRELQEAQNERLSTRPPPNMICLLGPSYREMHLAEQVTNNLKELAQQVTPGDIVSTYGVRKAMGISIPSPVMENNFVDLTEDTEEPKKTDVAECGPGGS
Nuclear body protein SP140-like protein (Homo sapiens), sequence (Q9H930 whole entry): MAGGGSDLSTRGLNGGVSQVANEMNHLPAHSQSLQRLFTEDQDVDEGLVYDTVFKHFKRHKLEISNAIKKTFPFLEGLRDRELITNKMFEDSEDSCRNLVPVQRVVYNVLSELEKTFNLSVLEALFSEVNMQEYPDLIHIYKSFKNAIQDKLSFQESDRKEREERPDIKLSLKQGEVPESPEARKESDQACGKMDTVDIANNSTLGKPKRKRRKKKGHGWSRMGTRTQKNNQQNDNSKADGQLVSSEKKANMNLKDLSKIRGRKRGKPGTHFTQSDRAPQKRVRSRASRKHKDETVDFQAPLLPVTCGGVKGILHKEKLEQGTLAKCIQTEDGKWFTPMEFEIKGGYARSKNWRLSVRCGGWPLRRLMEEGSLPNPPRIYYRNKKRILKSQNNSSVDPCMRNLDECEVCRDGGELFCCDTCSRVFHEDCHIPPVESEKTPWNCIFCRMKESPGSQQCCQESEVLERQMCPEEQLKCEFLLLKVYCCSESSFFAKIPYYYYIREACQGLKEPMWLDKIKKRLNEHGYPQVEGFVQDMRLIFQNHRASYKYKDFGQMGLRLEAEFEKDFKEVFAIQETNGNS

With `Cc1cc(=O)n(C)c2cc(N3C(=O)CC[C@@H](NS(=O)(=O)CC(C)C)[C@@H]3c3ccc(Cl)cc3)ccc12` the ΔTm [1] was 0.27 °C, the ΔTm [2] was 0.24 °C and the inhibition [3] was 1.4% and 14.2%. For the same compound, the ΔTm [4] was 0.15 °C and 0.13 °C, the ΔTm [5] was -0.43 °C and the ΔTm [6] was -0.09 °C. The ΔTm [7] was 0.02 °C, the ΔTm [8] was 0.16 °C and the ΔTm [9] was 0.35 °C. For the same compound, the ΔTm (Peregrin (Homo sapiens) [10]) was -0.19 °C, the ΔTm [11] was -0.12 °C and the inhibition [12] was 95.6%. The inhibition [13] was 10.7%, the ΔTm [14] was 0.16 °C and the ΔTm [15] was 0.6 °C. For the same compound, the inhibition (Peregrin (Homo sapiens) [16]; Compound concentration 1.25 uM) was 1.84%, the inhibition (Peregrin (Homo sapiens) [16]; Compound concentration 4.0 uM) was 3.88% and the ΔTm [17] was 0.17 °C. The ΔTm [18] was 0.17 °C, the ΔTm [19] was 10.1 °C and 10.7 °C and the ΔTm [20] was 0.2 °C. The ΔTm [21] was 0.33 °C, the ΔTm [22] was -0.14 °C and the ΔTm [23] was -0.02 °C. The ΔTm [24] was 0.17 °C and -0.28 °C, the ΔTm [25] was 0.01 °C and the ΔTm [26] was 0.38 °C. The inhibition [27] was 4.77%, the ΔTm (Peregrin (Homo sapiens) [28]) was -0.09 °C and 0.15 °C and the ΔTm [29] was 0.09 °C. The ΔTm [30] was 0.82 °C, the ΔTm [31] was 0.03 °C and the ΔTm [32] was 0.14 °C. It also gave a ΔTm [33] of -0.09 °C, a ΔTm [34] of 0.96 °C and a ΔTm [35] of -0.45 °C. The ΔTm [36] was 0.44 °C, the ΔTm [37] was 0.76 °C and the ΔTm [38] was -0.21 °C. For the same compound, the ΔTm [39] was 0.01 °C, the ΔTm [40] was 0.44 °C and the ΔTm [41] was -0.05 °C. The ΔTm [42] was 0.14 °C, the ΔTm [43] was 5.28 °C and 8.25 °C and 6.82 °C and the ΔTm [44] was -0.48 °C. The ΔTm [45] was -0.38 °C, the inhibition ([46]; Compound concentration 0.25 uM, Protein concentration 19.0 uM) was 3.67% and the inhibition ([46]; Compound concentration 0.25 uM, Protein concentration 20.0 uM) was 7.02%. It also gave an inhibition ([46]; Compound concentration 4.0 uM, Protein concentration 19.0 uM) of 7.64%, a ΔTm [47] of 1.82 °C and a ΔTm [48] of -0.08 °C. For the same compound, the ΔTm [49] was 0.69 °C, the ΔTm [50] was 0.15 °C and the ΔTm [51] was 0.06 °C. It also gave a ΔTm [52] of -0.26 °C, a ΔTm [53] of 1.22 °C and a ΔTm [54] of 0.17 °C.
